Data set [1] is described as follows: Serum stability of 68Ga- and 177Lu-labeled exendin-4 analogues in human serum. In kind it is in vitro ADME. The note with it: ^177Lu-labeled peptide, human serum (1:10), 37 °C, after 24 h, acetonitrile precipitation, RP-HPLC.
Experimental: Serum stability was analyzed as described in the Supporting Information.
The radiolabeled compounds were incubated in
10 human serum (1:10) at 37°C and samples were taken after 1 and 2 hour incubation for the 68Ga-labeled
12 Supernatant was obtained by precipitating the serum proteins by adding a 1:1 (v/v) volume of
13 acetonitrile, followed by centrifugation for 5 min at 3220xg. Subsequently, the supernatant was
14 analyzed using RP-HPLC. RP-HPLC was performed as described in the main text.
A short description of data set [2]: Dosimetry: kidney self-dose in mice (OLINDA/EXM, 25 g RADAR model). The arrangement: species or system mouse. How it is done: The kidney self-dose was calculated based on the activity distribution of the tracer in the kidneys. Time-integrated activity coefficients (MBq-h/MBq) were calculated using mono-exponential curve-fitting between the timepoints.
Data set [3] can be described thus: Dosimetry: absorbed kidney dose extrapolated to humans (OLINDA/EXM, 80 kg male reference model). Also noted: species or system human. The note with it: radiolabeled tracer (^68Ga or ^177Lu), extrapolated from mice data. The text has this: The mice data were then used to extrapolate the expected absorbed kidney doses per injected activity to humans using the equation:[25],[26] [drawing 1] with [drawing 2] the percentage of the injected activity concentration, [drawing 3] the percentage of the injected activity per organ, m the organ mass, and M the total human or mouse body weight.

The conditions of data set [4]: co-administration; cited from earlier work. The text has this: Several successful strategies to reduce the renal uptake of radiolabeled peptides have been described. […]. […] These two studies evoked the question whether the translation of the methionine–isoleucine linker to exendin-4 could help to reduce the renal uptake of exendin. Based on literature, the additio ...

“Lys^40[Mep((S-)DOTA-Met-Ile-Mal-)]exendin-4 [DOTA-MI-exendin-4]”: the serum stability in data set [1] is >80% after 24 h. For the same compound, the “reduction of estimated absorbed kidney dose vs reference without MI linker” value in data set [2] (in both mice and humans) is on record as 57%. Further, the “estimated absorbed kidney dose per injected activity, mice” value in data set [2] (radiolabeled tracer (^68Ga or ^177Lu), from biodistribution in INS-1 tumor-bearing mice, OLINDA/EXM 2.1, 25 g RADAR model) is reported as 1974 mSv/MBq. Further, the “estimated absorbed kidney dose per injected activity, humans” value in data set [3] is reported as 0.89 mSv/MBq.

As for `NCCCC[C@H](N)C(=O)O` [lysine], in data set [4], the “increase in renal uptake of radiolabeled exendin” value is 6%.

The values are drawn from publication PMC10324399, “New Radiolabeled Exendin Analogues Show Reduced Renal Retention” (Molecular Pharmaceutics, 2023).
